# Results: patent publication US20260034112A1, “MULTI-CYCLIC IRAK1 AND IRAK4 INHIBITING COMPOUNDS AND USES THEREOF” (CHILDREN'S HOSPITAL MEDICAL CENTER, priority 2022, published 2026)
# Test system: THP1 cells
# Format: cell-based, human
smiles,measurement,setting,value
"Cc1cc(-c2nc(C(=O)Nc3cc4oc(N5CCOCC5)nc4nc3N3CC[C@@H](O)C3)co2)ccn1 [CA-4948, emavusertib]",Log(FC) of gene KCNH2,,−0.6125
same,Log(FC) of gene ABCC2,CA-4948 vs DMSO in THP1 cells,0.6855
same,Log(FC) of gene AC016629.8,CA-4948 vs DMSO in THP1 cells,0.586
same,Log(FC) of gene AC093391.2,CA-4948 vs DMSO in THP1 cells,0.7835
same,Log(FC) of gene ADAM8,CA-4948 vs DMSO in THP1 cells,0.6886
same,Log(FC) of gene ADAM19,CA-4948 vs DMSO in THP1 cells,0.5984
same,Log(FC) of gene ADCY4,CA-4948 vs DMSO in THP1 cells,1.023
same,Log(FC) of gene AMH,CA-4948 vs DMSO in THP1 cells,0.7789
same,Log(FC) of gene ANKFN1,CA-4948 vs DMSO in THP1 cells,0.6129
same,Log(FC) of gene ANKRD34A,CA-4948 vs DMSO in THP1 cells,0.9288
same,Log(FC) of gene AP3B2,CA-4948 vs DMSO in THP1 cells,0.7192
same,Log(FC) of gene AP000330.8,CA-4948 vs DMSO in THP1 cells,0.7147
same,Log(FC) of gene APOE,CA-4948 vs DMSO in THP1 cells,0.6335
same,Log(FC) of gene APOLD1,CA-4948 vs DMSO in THP1 cells,0.7365
same,Log(FC) of gene ARID3C,CA-4948 vs DMSO in THP1 cells,0.8751
same,Log(FC) of gene ARL17B,CA-4948 vs DMSO in THP1 cells,0.6318
same,Log(FC) of gene ARTN,CA-4948 vs DMSO in THP1 cells,0.6881
same,Log(FC) of gene ASIC3,CA-4948 vs DMSO in THP1 cells,1.28
same,Log(FC) of gene ATP2B3,CA-4948 vs DMSO in THP1 cells,0.7931
same,Log(FC) of gene AURKB,CA-4948 vs DMSO in THP1 cells,0.6324
same,Log(FC) of gene BRICD5,CA-4948 vs DMSO in THP1 cells,0.6636
same,Log(FC) of gene BTBD19,CA-4948 vs DMSO in THP1 cells,0.6939
same,Log(FC) of gene BVES-AS1,CA-4948 vs DMSO in THP1 cells,0.5945
same,Log(FC) of gene BZRAP1,CA-4948 vs DMSO in THP1 cells,1.334
same,Log(FC) of gene C1orf51,CA-4948 vs DMSO in THP1 cells,1.033
same,Log(FC) of gene C2orf48,CA-4948 vs DMSO in THP1 cells,0.606
same,Log(FC) of gene C5orf56,CA-4948 vs DMSO in THP1 cells,0.7488
same,Log(FC) of gene C9orf37,CA-4948 vs DMSO in THP1 cells,0.6108
same,Log(FC) of gene C15orf62,CA-4948 vs DMSO in THP1 cells,0.8673
same,Log(FC) of gene C16orf86,CA-4948 vs DMSO in THP1 cells,0.6351
same,Log(FC) of gene CACTIN-AS1,CA-4948 vs DMSO in THP1 cells,0.7321
same,Log(FC) of gene CATSPER3,CA-4948 vs DMSO in THP1 cells,0.6152
same,Log(FC) of gene CCDC103,CA-4948 vs DMSO in THP1 cells,−0.6115
same,Log(FC) of gene CCDC109B,CA-4948 vs DMSO in THP1 cells,0.8991
same,Log(FC) of gene CCDC154,CA-4948 vs DMSO in THP1 cells,0.7952
same,Log(FC) of gene CCDC155,CA-4948 vs DMSO in THP1 cells,0.6645
same,Log(FC) of gene CCDC183,CA-4948 vs DMSO in THP1 cells,0.9658
same,Log(FC) of gene CD101,CA-4948 vs DMSO in THP1 cells,0.5897
same,Log(FC) of gene CD163,CA-4948 vs DMSO in THP1 cells,−0.5952
same,Log(FC) of gene CD302,CA-4948 vs DMSO in THP1 cells,0.6021
same,Log(FC) of gene CDC42EP2,CA-4948 vs DMSO in THP1 cells,0.6518
same,Log(FC) of gene CEACAM19,CA-4948 vs DMSO in THP1 cells,1.259
same,Log(FC) of gene CGN,CA-4948 vs DMSO in THP1 cells,0.9021
same,Log(FC) of gene CHN2,CA-4948 vs DMSO in THP1 cells,0.8531
same,Log(FC) of gene CHRFAM7A,CA-4948 vs DMSO in THP1 cells,−0.9429
same,Log(FC) of gene CILP2,CA-4948 vs DMSO in THP1 cells,0.8989
same,Log(FC) of gene CLDN15,CA-4948 vs DMSO in THP1 cells,0.6387
same,Log(FC) of gene CLEC10A,CA-4948 vs DMSO in THP1 cells,0.6157
same,Log(FC) of gene CLEC12B,CA-4948 vs DMSO in THP1 cells,0.7555
same,Log(FC) of gene CLK1,CA-4948 vs DMSO in THP1 cells,1.08
same,Log(FC) of gene CLK3,CA-4948 vs DMSO in THP1 cells,0.9323
same,Log(FC) of gene CLK4,CA-4948 vs DMSO in THP1 cells,0.8127
same,Log(FC) of gene CMTM1,CA-4948 vs DMSO in THP1 cells,1.158
same,Log(FC) of gene CNIH2,CA-4948 vs DMSO in THP1 cells,0.9526
same,Log(FC) of gene CNKSR1,CA-4948 vs DMSO in THP1 cells,0.9226
same,Log(FC) of gene COL7A1,CA-4948 vs DMSO in THP1 cells,1.605
same,Log(FC) of gene CPNE5,CA-4948 vs DMSO in THP1 cells,0.7008
same,Log(FC) of gene CPT1B,CA-4948 vs DMSO in THP1 cells,1.318
same,Log(FC) of gene CRABP2,CA-4948 vs DMSO in THP1 cells,3.095
same,Log(FC) of gene CTRL,CA-4948 vs DMSO in THP1 cells,1.027
same,Log(FC) of gene DCAF4L1,CA-4948 vs DMSO in THP1 cells,1.097
same,Log(FC) of gene DCAKD,CA-4948 vs DMSO in THP1 cells,0.6901
same,Log(FC) of gene DCST2,CA-4948 vs DMSO in THP1 cells,1.278
same,Log(FC) of gene DDB2,CA-4948 vs DMSO in THP1 cells,0.5883
same,Log(FC) of gene DEGS2,CA-4948 vs DMSO in THP1 cells,0.6503
same,Log(FC) of gene DMPK,CA-4948 vs DMSO in THP1 cells,0.6345
same,Log(FC) of gene DNAH1,CA-4948 vs DMSO in THP1 cells,0.6015
same,Log(FC) of gene DNAJC27-AS1,CA-4948 vs DMSO in THP1 cells,0.6304
same,Log(FC) of gene DNASE1L2,CA-4948 vs DMSO in THP1 cells,1.008
same,Log(FC) of gene DND1,CA-4948 vs DMSO in THP1 cells,1.389
same,Log(FC) of gene DNHD1,CA-4948 vs DMSO in THP1 cells,1.083
same,Log(FC) of gene DRP2,CA-4948 vs DMSO in THP1 cells,0.9019
same,Log(FC) of gene EFCAB12,CA-4948 vs DMSO in THP1 cells,1.697
same,Log(FC) of gene EGFR,CA-4948 vs DMSO in THP1 cells,0.882
same,Log(FC) of gene EIF3CL,CA-4948 vs DMSO in THP1 cells,0.7466
same,Log(FC) of gene ELMO3,CA-4948 vs DMSO in THP1 cells,0.7963
same,Log(FC) of gene ENHO,CA-4948 vs DMSO in THP1 cells,0.7452
